# In PMC4883699 (Bioorganic & medicinal chemistry, 2009):
# Experiments:
# [1] = Cytotoxicity on Vero cells; settings: African green monkey
# in vitro = settings: African green monkey
# malaria parasite = settings: cited from earlier work; for reduction in parasitemia: oral, 2 × 100 μmol/kg; for survival times versus chloroquine or artemisinin treated mice: single dose 50 or 100 μmol/kg
# [2] = tested on: Plasmodium falciparum (D6 clone, Sierra Leone, chloroquine sensitive); assay: In vitro antimalarial activity, chloroquine sensitive D6 clone; type: cell-based; settings: D6, read-out: P. falciparum (D6 Clone) IC50
# [3] = tested on: Plasmodium falciparum (W2 clone, IndoChina, chloroquine resistant); assay: In vitro antimalarial activity, chloroquine resistant W2 clone; type: cell-based; settings: W2, read-out: P. falciparum (W2 Clone) IC50
# [4] = tested on: P. berghei (NK-65 strain); assay: In vivo antimalarial activity in P. berghei infected mice; set-up: species or system mice (Swiss Webster); settings: for apparent toxicity in vivo: oral, 30 mg/kg once daily for three days, mice
# [5] = tested on: Mycobacterium intracellulare; assay: In vitro antimicrobial activity, M. intracellulare; type: cell-based; settings: read-out: M. intracellulare IC50
# [6] = tested on: African green monkey kidney fibroblast cells (Vero); settings: cited from earlier work
# [7] = Vero cells (African green monkey kidney fibroblast cells)
smiles,measurement,setting,value
"CC(C)(C)C(=O)Nc1ccc2[nH]c3c(C4=C[C@@]5(O)CC/C=C\CCCCN6CC[C@@H]4[C@]4(C[C@@H]7/C=C\CCCCN7[C@H]45)C6)nccc3c2c1 [Compound 10, 6-Pivalamidomanzamine A]",IC50,[1]; [7],> 470 nM
"CC(C)(C)CC(=O)Nc1cccc2c1[nH]c1c(C3=C[C@@]4(O)CC/C=C\CCCCN5CC[C@@H]3[C@]3(C[C@@H]6/C=C\CCCCN6[C@H]34)C5)nccc12 [Compound 23, 8-(t-Butyl)-acetamidomanzamine A]",IC50,in vitro,> 470 nM
"O=C(Nc1cccc2c1[nH]c1c(C3=C[C@@]4(O)CC/C=C\CCCCN5CC[C@@H]3[C@]3(C[C@@H]6/C=C\CCCCN6[C@H]34)C5)nccc12)C1CCCCC1 [Compound 24, 8-Cyclohexamidomanzamine A]",IC50,in vitro,> 470 nM
"CCCCC(=O)Nc1ccc2[nH]c3c(C4=C[C@@]5(O)CC/C=C\CCCCN6CC[C@@H]4[C@]4(C[C@@H]7/C=C\CCCCN7[C@H]45)C6)nccc3c2c1 [Compound 9, 6-n-Pentamidomanzamine A]",IC50,in vitro,> 470 nM
"CC(C)(C)CC(=O)Nc1ccc2[nH]c3c(C4=C[C@@]5(O)CC/C=C\CCCCN6CC[C@@H]4[C@]4(C[C@@H]7/C=C\CCCCN7[C@H]45)C6)nccc3c2c1 [Compound 13, 6-(t-Butyl)-acetamidomanzamine A]",IC50,[1]; [7],> 470 nM
"Oc1cccc2c1[nH]c1c(C3=C[C@@]4(O)CC/C=C\CCCCN5CC[C@@H]3[C@]3(C[C@@H]6/C=C\CCCCN6[C@H]34)C5)nccc12 [Compound 2, 8-Hydroxymanzamine A]",reduction in parasitemia,malaria parasite,90%
same,survival times versus chloroquine or artemisinin treated mice,malaria parasite,significant improvements in survival times
CCN(CC)CCCC(C)Nc1ccnc2cc(Cl)ccc12 (centres unmarked) [Chloroquine],IC50,[2],50 nM
same,IC50,[3],484 nM
same,suppression of the parasitemia,"[4]; chloroquine control, 10 mg/kg, three doses",100%
"O[C@]12C=C(c3nccc4c3[nH]c3ccccc34)[C@@H]3CCN(CCCC/C=C\CC1)C[C@@]31C[C@@H]3/C=C\CCCCN3[C@H]12 [Compound 1, Manzamine A]",IC50,[5],640 nM
same,TC50 against Vero cells,[6],365 nM
same,reduction in parasitemia,malaria parasite,90%
same,survival times versus chloroquine or artemisinin treated mice,malaria parasite,significant improvements in survival times
same,IC50,[1],365 nM
"CCC(=O)Nc1ccc2[nH]c3c(C4=C[C@@]5(O)CC/C=C\CCCCN6CC[C@@H]4[C@]4(C[C@@H]7/C=C\CCCCN7[C@H]45)C6)nccc3c2c1 [Compound 6, 6-n-Propamidomanzamine A]",IC50,[1]; [7],> 470 nM
"CC(C)C(=O)Nc1cccc2c1[nH]c1c(C3=C[C@@]4(O)CC/C=C\CCCCN5CC[C@@H]3[C@]3(C[C@@H]6/C=C\CCCCN6[C@H]34)C5)nccc12 [Compound 18, 8-Isobutamidomanzamine A]",IC50,[1]; [7],> 470 nM
"CCCCCC(=O)Nc1cccc2c1[nH]c1c(C3=C[C@@]4(O)CC/C=C\CCCCN5CC[C@@H]3[C@]3(C[C@@H]6/C=C\CCCCN6[C@H]34)C5)nccc12 [Compound 21, 8-n-Hexamidomanzamine A]",apparent toxicity in vivo,[4],no apparent toxicity
"CC(C)C(=O)Nc1ccc2[nH]c3c(C4=C[C@@]5(O)CC/C=C\CCCCN6CC[C@@H]4[C@]4(C[C@@H]7/C=C\CCCCN7[C@H]45)C6)nccc3c2c1 [Compound 8, 6-Isobutamidomanzamine A]",IC50,[1],> 470 nM
"CCCCC(=O)Nc1cccc2c1[nH]c1c(C3=C[C@@]4(O)CC/C=C\CCCCN5CC[C@@H]3[C@]3(C[C@@H]6/C=C\CCCCN6[C@H]34)C5)nccc12 [Compound 19, 8-n-Pentamidomanzamine A]",IC50,in vitro,> 470 nM
"O=C(Nc1ccc2[nH]c3c(C4=C[C@@]5(O)CC/C=C\CCCCN6CC[C@@H]4[C@]4(C[C@@H]7/C=C\CCCCN7[C@H]45)C6)nccc3c2c1)C1CCCCC1 [Compound 14, 6-Cyclohexamidomanzamine A]",apparent toxicity in vivo,[4],no apparent toxicity
same,IC50,[1],> 470 nM
"CCCCCC(=O)Nc1ccc2[nH]c3c(C4=C[C@@]5(O)CC/C=C\CCCCN6CC[C@@H]4[C@]4(C[C@@H]7/C=C\CCCCN7[C@H]45)C6)nccc3c2c1 [Compound 11, 6-n-Hexamidomanzamine A]",IC50,in vitro,> 470 nM
